In PubChem BioAssay AID1963425 (Molecular Pharmacology Branch, DTP, NCI, 2024):

Test system: 323965-272-R-J2-PDC complex spheroid growth, % test/control
Test: Anticancer human tumor 323965-272-R-J2-PDC patient-derived pancreatic carcinoma cell line growth inhibition [Asc]
Conditions: for IC50: curve of first compound; for viability, T/C: stronger effect = lower value
Method in brief: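 Complex solid-tumor spheroids incorporating human endothelial and mesenchymal stem cells received single agents or combinations over half-log dilution ranges anchored to clinical Cmax.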
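Also: compound exposure lasted 7 days starting three days after spheroid seeding.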
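For viability, T/C in this document: 100% = DMSO vehicle control wells with viability set relative to vehicle.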

SMILES: C=CC(=O)N1CCN(c2nc(=O)n(-c3c(C)ccnc3C(C)C)c3nc(-c4c(O)cccc4F)c(F)cc23)C(C)C1 (centres undefined) + Cc1c(S(C)(=O)=O)c(-c2cc(F)cc(N3CCN(c4ccc(NS(=O)(=O)c5ccc(NC(CCN6CCC(C(=O)OCCCP(=O)(O)O)CC6)CSc6ccccc6)c(S(=O)(=O)C(F)(F)F)c5)cc4)CC3)c2)c(-c2ccc(Cl)cc2)n1C(C)C
- IC50 (second compound 0.0316 µM): > 10 µM
- IC50 (second compound 0.1 µM): > 10 µM
- IC50 (second compound 0.316 µM): > 10 µM
- IC50 (second compound 1 µM): > 10 µM
- IC50 (second compound 3.16 µM): 0.0793 µM
- IC50 (second compound 10 µM): < 0.0316 µM
- viability, T/C (second compound 0.0316 µM, first compound 0.0316 µM): 82.1%
- viability, T/C (second compound 0.0316 µM, first compound 0.1 µM): 64.8%
- viability, T/C (second compound 0.0316 µM, first compound 0.316 µM): 65.9%
- viability, T/C (second compound 0.0316 µM, first compound 1 µM): 62.3%
- viability, T/C (second compound 0.0316 µM, first compound 3.16 µM): 63.7%
- viability, T/C (second compound 0.0316 µM, first compound 10 µM): 67%
- viability, T/C (second compound 0.1 µM, first compound 0.0316 µM): 74.3%
- viability, T/C (second compound 0.1 µM, first compound 0.1 µM): 64.4%
- viability, T/C (second compound 0.1 µM, first compound 0.316 µM): 68%
- viability, T/C (second compound 0.1 µM, first compound 1 µM): 64.2%
- viability, T/C (second compound 0.1 µM, first compound 3.16 µM): 66.7%
- viability, T/C (second compound 0.1 µM, first compound 10 µM): 56.8%
- viability, T/C (second compound 0.316 µM, first compound 0.0316 µM): 76.8%
- viability, T/C (second compound 0.316 µM, first compound 0.1 µM): 60.1%
- viability, T/C (second compound 0.316 µM, first compound 0.316 µM): 56.1%
- viability, T/C (second compound 0.316 µM, first compound 1 µM): 59%
- viability, T/C (second compound 0.316 µM, first compound 3.16 µM): 58.6%
- viability, T/C (second compound 0.316 µM, first compound 10 µM): 53.5%
- viability, T/C (second compound 1 µM, first compound 0.0316 µM): 65.3%
- viability, T/C (second compound 1 µM, first compound 0.1 µM): 59.5%
- viability, T/C (second compound 1 µM, first compound 0.316 µM): 57%
- viability, T/C (second compound 1 µM, first compound 1 µM): 54.5%
- viability, T/C (second compound 1 µM, first compound 3.16 µM): 61.4%
- viability, T/C (second compound 1 µM, first compound 10 µM): 46%
- viability, T/C (second compound 3.16 µM, first compound 0.0316 µM): 62.2%
- viability, T/C (second compound 3.16 µM, first compound 0.1 µM): 47.4%
- viability, T/C (second compound 3.16 µM, first compound 0.316 µM): 43.2%
- viability, T/C (second compound 3.16 µM, first compound 1 µM): 38.4%
- viability, T/C (second compound 3.16 µM, first compound 3.16 µM): 43.8%
- viability, T/C (second compound 3.16 µM, first compound 10 µM): 44%
- viability, T/C (second compound 10 µM, first compound 0.0316 µM): 48.2%
- viability, T/C (second compound 10 µM, first compound 0.1 µM): 40.9%
- viability, T/C (second compound 10 µM, first compound 0.316 µM): 39.7%
- viability, T/C (second compound 10 µM, first compound 1 µM): 40.5%
- viability, T/C (second compound 10 µM, first compound 3.16 µM): 44.9%
- viability, T/C (second compound 10 µM, first compound 10 µM): 39%

SMILES: O=C(c1ccc(F)c(F)c1Nc1ccc(I)cc1F)N1CC(O)([C@@H]2CCCCN2)C1 + CCN1C(C(=O)NC23CCC(C(=O)O)(CC2)CC3)C(c2cccc(Cl)c2F)C2(C(=O)Nc3cc(Cl)ccc32)C12CCCCC2
- IC50 (second compound 0.00949 µM): 0.119 µM
- IC50 (second compound 0.03 µM): 0.15 µM
- IC50 (second compound 0.0949 µM): 0.127 µM
- IC50 (second compound 0.3 µM): 0.134 µM
- IC50 (second compound 0.949 µM): 0.121 µM
- IC50 (second compound 3 µM): 0.081 µM
- viability, T/C (second compound 0.00949 µM, first compound 0.00316 µM): 110%
- viability, T/C (second compound 0.00949 µM, first compound 0.01 µM): 88.1%
- viability, T/C (second compound 0.00949 µM, first compound 0.0316 µM): 75%
- viability, T/C (second compound 0.00949 µM, first compound 0.1 µM): 52.1%
- viability, T/C (second compound 0.00949 µM, first compound 0.316 µM): 32.1%
- viability, T/C (second compound 0.00949 µM, first compound 1 µM): 19.9%
- viability, T/C (second compound 0.03 µM, first compound 0.00316 µM): 113%
- viability, T/C (second compound 0.03 µM, first compound 0.01 µM): 92%
- viability, T/C (second compound 0.03 µM, first compound 0.0316 µM): 86.3%
- viability, T/C (second compound 0.03 µM, first compound 0.1 µM): 57.3%
- viability, T/C (second compound 0.03 µM, first compound 0.316 µM): 33.6%
- viability, T/C (second compound 0.03 µM, first compound 1 µM): 19.4%
- viability, T/C (second compound 0.0949 µM, first compound 0.00316 µM): 103%
- viability, T/C (second compound 0.0949 µM, first compound 0.01 µM): 89.5%
- viability, T/C (second compound 0.0949 µM, first compound 0.0316 µM): 75.2%
- viability, T/C (second compound 0.0949 µM, first compound 0.1 µM): 55.3%
- viability, T/C (second compound 0.0949 µM, first compound 0.316 µM): 32.7%
- viability, T/C (second compound 0.0949 µM, first compound 1 µM): 19.1%
- viability, T/C (second compound 0.3 µM, first compound 0.00316 µM): 93.7%
- viability, T/C (second compound 0.3 µM, first compound 0.01 µM): 106%
- viability, T/C (second compound 0.3 µM, first compound 0.0316 µM): 75.7%
- viability, T/C (second compound 0.3 µM, first compound 0.1 µM): 54.6%
- viability, T/C (second compound 0.3 µM, first compound 0.316 µM): 37.1%
- viability, T/C (second compound 0.3 µM, first compound 1 µM): 19.2%
- viability, T/C (second compound 0.949 µM, first compound 0.00316 µM): 96.3%
- viability, T/C (second compound 0.949 µM, first compound 0.01 µM): 95.9%
- viability, T/C (second compound 0.949 µM, first compound 0.0316 µM): 72.9%
- viability, T/C (second compound 0.949 µM, first compound 0.1 µM): 54%
- viability, T/C (second compound 0.949 µM, first compound 0.316 µM): 33.4%
- viability, T/C (second compound 0.949 µM, first compound 1 µM): 19.7%
- viability, T/C (second compound 3 µM, first compound 0.00316 µM): 97.6%
- viability, T/C (second compound 3 µM, first compound 0.01 µM): 85.2%
- viability, T/C (second compound 3 µM, first compound 0.0316 µM): 65.6%
- viability, T/C (second compound 3 µM, first compound 0.1 µM): 46.7%
- viability, T/C (second compound 3 µM, first compound 0.316 µM): 29.6%
- viability, T/C (second compound 3 µM, first compound 1 µM): 18.3%
